# Experiments:
# Type in all cases: biochemical
# [1] = system: C16-ceramide channels in the MOM of yeast mitochondria; assay: Complex IV accessibility assay, isolated yeast mitochondria
# Procedure: (§1) The ability of the naturally-occurring C16-ceramide to form channels in the mitochondrial outer membranes of isolated yeast mitochondria was assessed via the complex IV accessibility assay. This assay measures the bidirectional flux of cytochrome c across the mitochondrial outer membrane (MOM) by monitoring its oxidation by complex IV of the mitochondrial inner membrane electron transport chain. The initial rate of cytochrome c oxidation when expressed as a percent of the rate measured in mitochondria with damaged outer membranes is a good measure of the permeability of the MOM to proapoptotic proteins. This method has an advantage over simply looking for the release of cytochrome c because both channel prevention and reversal by a potential inhibitor can be evaluated.
# Thus, mitochondria are isolated from wild type yeast and yeast strains expressing either human Bcl-2 or Bcl-xL according to previously published methods (Lee, A. et al. (1998) “THE ROLE OF YEAST VDAC GENES ON THE PERMEABILITY OF THE MITOCHONDRIAL OUTER MEMBRANE,” J. Membr. Biol. 161:173-181). Isolated yeast mitochondria are incubated with the naturally occurring C16-ceramide and its ability to form channels is evaluated according to the complex IV accessibility assay (Siskind, L. J. et al. (2002) “CERAMIDE CHANNELS INCREASE THE PERMEABILITY OF THE MITOCHONDRIAL OUTER MEMBRANE To SMALL PROTEINS,” J. Biol. Chem. 277:26796-26803). This assay measures the CN-sensitive oxidation of exogenously-added reduced cytochrome c by cytochrome c oxidase of the inner membrane. It measures the permeability of the mitochondrial outer membrane (MOM) to cytochrome c. […] Mitochondria are incubated with test agents (e.g., C16-ceramide) for a predetermined period of time (e.g., 5-20 minutes), reduced cytochrome c is added and the absorbance is monitored at 550 nm. […]
# The complex IV accessibility measures of the permeability of the MOM. The initial rate is expressed as a percentage of the rate of cytochrome c oxidation in mitochondria whose outer membranes are ruptured by hypotonic shock. […]
# [2] = system: ceramide channels in the mitochondrial outer membrane (MOM); assay: Adenylate kinase release assay in isolated rat liver mitochondria; conditions: for effect of preincubation on C16-ceramide permeabilization of the MOM and adenylate kinase release: 5 min preincubation, C16-ceramide 40 μg/mL, 10 min, low concentration potentiates, higher inhibits
# Procedure: The preparation yielded a mitochondrial suspension containing 10 mg of protein per mL. […] The mitochondria were then pelleted at 14,000 g for 5 min at 4° C. and the supernatant was kept on ice until assayed. […] The enzymes were added to the rest of the reaction mixture 1 min before the addition of the mitochondrial supernatant to allow a trace of ATP to be consumed. The activity of adenylate kinase was detected as an increase in absorbance at 340 nm. Since the activity of the kinase decays with time, even on ice, experiments were performed in sets and the activity of the first supernatant was assayed again at the end of the set. The values were fitted to a first order decay and all values within the set were corrected for the decay of the activity, based on the time delay before assay.
# To determine the effect of sphingosine pretreatment on ceramide permeabilization of the mitochondrial outer membrane, mitochondria were incubated at room temperature in the presence of varying concentrations of sphingosine for […] before addition of ceramide and incubation for 10 min. Untreated mitochondria and mitochondria hypotonically lysed (20 μl into 1.2 ml water) served as negative and positive controls, respectively.
# Experiments with C16-ceramide were performed in a similar way except as follows. The mitochondria were suspended in the above medium except that the 1 mM Tris buffer was replaced by 5 mM HEPES. To 1.0 mL of this medium at room temperature (RT) was added 17 μL of mitochondrial suspension that had been kept on ice at a concentration of 4 mg/mL. The final mitochondrial protein concentration during the experiment was 80 μg/mL. In the case of shocked mitochondria, the 1.0 mL of medium was replaced by water. Sphingosine was added, where appropriate, from a 0.25 mg/mL solution in DMSO. Typically 4-7 incubations were run in parallel. All samples were incubated for 5 min at RT. Then some samples received 0.4 mL of fatty acid depleted bovine serum albumin (BSA), 25 mg/mL, followed immediately by 20 μL of C16-ceramide dissolved in isopropanol at 2 mg/mL. After a 10-min incubation at RT, 10 μL of 4 mM PMSF was added followed by centrifugation. In these experiments 0.3 mL of mitochondrial supernatant was added to the adenylate kinase reaction mixture.
# [3] = Ability of sphingolipids to form channels in membranes
# Text: The present invention establishes that sphingosine is capable of directly disassembling ceramide channels, thus proving the existence of this novel anti-apoptotic regulatory step. The ability of sphingosine, sphingosine-1-phosphate ([…]) and ceramide-1-phosphate the ability to form channels was investigated.
# yeast mitochondria = assay: Ceramide-induced permeabilization in yeast mitochondria
# mammalian MOM = assay: Ceramide-induced permeabilization of mammalian MOM; conditions: C16-ceramide; read-out: IC50 for inhibition of C16-ceramide-induced permeabilization of mammalian MOM
# [4] = system: ceramide channels in the MOM of rat liver mitochondria; assay: Complex IV accessibility assay (cytochrome c oxidation), isolated rat liver mitochondria
# Text: The amount of ceramide that needs to be added to mitochondria to achieve permeabilization of the MOM to proteins is high compared to physiological levels. However, it is not the absolute ceramide concentration in solution that is important, but rather the concentration of ceramide in the membrane. In addition, only a small percentage of the ceramide added to the solution actually inserts into the membrane. This issue was directly addressed by using radiolabeled ceramide and simultaneously measuring how much ceramide inserts into rat liver mitochondria and how much permeabilization is achieved in the MOM by measuring the accessibility of exogenously added cytochrome c. […] Levels measured in mitochondria in the early stages of apoptosis are 4 pmoles per nmole. Thus, the results are well within the physiological range. Note that after correcting for the membrane partitioning, long and short-chain ceramide have equal potency as expected from the model of the ceramide channel.
# as §1
# Thus, mitochondria are isolated from wild type yeast and yeast strains expressing either human Bcl-2 or Bcl-xL according to previously published methods (Lee, A. et al. (1998) “THE ROLE OF YEAST VDAC GENES ON THE PERMEABILITY OF THE MITOCHONDRIAL OUTER MEMBRANE,” J. Membr. Biol. 161:173-181). Isolated yeast mitochondria are incubated with the naturally occurring C16-ceramide and its ability to form channels is evaluated according to the complex IV accessibility assay (Siskind, L. J. et al. (2002) “CERAMIDE CHANNELS INCREASE THE PERMEABILITY OF THE MITOCHONDRIAL OUTER MEMBRANE To SMALL PROTEINS,” J. Biol. Chem. 277:26796-26803). This assay measures the CN-sensitive oxidation of exogenously-added reduced cytochrome c by cytochrome c oxidase of the inner membrane. […] Mitochondria are incubated with test agents (e.g., C16-ceramide) for a predetermined period of time (e.g., 5-20 minutes), reduced cytochrome c is added and the absorbance is monitored at 550 nm. […]
# [5] = system: ceramide channel in planar phospholipid membrane; assay: Electrophysiological recordings on planar phospholipid membranes; conditions: 0.15 μM protein added while stirring, voltage clamp, FIG. 16
# Text: Planar phospholipid membranes were produced by the monolayer method (Montal, M. et al. (1972) “FORMATION OF BIMOLECULAR MEMBRANES FROM LIPID MONOLAYERs AND A STUDY OF THEIR ELECTRICAL PROPERTIES,” Proc. Natl. Acad. Sci. USA 69:3561-3566) as modified by Colombini, M. (1987) (“CHARACTERIZATION OF CHANNELS ISOLATED FROM PLANT MITOCHONDRIA,” Methods Enzymol. 148:465-475), across a 100-μm-diameter hole in a Saran partition. Monolayers were produced using a solution of 0.5% w/v asolectin, 0.5% w/v DiPhyPC, 0.1% w/v cholesterol in hexane. This technique produces solvent-free phospholipid membranes whose lipid composition (focusing on the polar head-groups) is similar to that found in the mitochondrial outer membrane. It differs from the natural membrane in lacking proteins.
# The aqueous solutions contained 1 mM MgCl2, and 5 mM Pipes pH 6.8 with KCl varying from 0.10 M to 1.0 M. The KCl concentration on one side of the membrane, referred to as the “trans” side, was always 0.10 M, whereas the other side (the “cis” side) was adjusted as needed. The transmembrane voltage was electronically clamped and the current through the membrane was recorded. The voltage values indicated are the voltage differences across the membrane cis side minus trans side.
# C2-ceramide was stirred into the aqueous solution on each side of the membrane from a solution in DMSO, generally 0.5 mg/ml. Single or multiple additions, typically […] each, yielding a final concentration of 2 μg/ml, were made to achieve a desired level of conductance. Sphingosine additions of 5 μl were made from a solution in DMSO (4 mg/mL) yielding a final concentration of 4 μg/mL.
# The observation that anti-apoptotic Bcl-2 family proteins inhibit ceramide channel formation in isolated yeast and rat liver mitochondria correlates with previous reports showing inhibition of ceramide-induced apoptosis in whole cells by these proteins. Thus the results directly tie ceramide-induced mitochondrial-mediated apoptosis with the Bcl-2 family of proteins known to regulate these events. To address whether the antiapoptotic proteins act directly on ceramide channels or work by an indirect action, their affects on ceramide channels in solvent-free planar phospholipid membranes was tested. This is a defined system free of other proteins. When C16-ceramide is added to the aqueous solution bathing one side of a planar phospholipid membrane, it results in discontinuous increases in conductance under voltage-clamp conditions, the defining characteristic of channel formation in membranes. These conductance increments are the enlargement of one ceramide channel rather than the formation of multiple ceramide channels in parallel (Siskind, L. J. et al. (2003) “ENLARGEMENT AND CONTRACTURE OF C2-CERAMIDE CHANNELS,” Biophys. J. 85:1560-1575). […]
# [6] = system: ceramide channels in mitochondrial outer membranes; assay: Dihydroceramide inhibition of ceramide channel formation in mitochondrial outer membranes (rate of oxidation of exogenously-added cytochrome c)
# Text: The permeability was monitored by recording the rate of oxidation of exogenously-added cytochrome c. Ceramide (C2) was present at all data points except for the highest amount of dihydroceramide (DHC2) added (29 nmol).
molecule,measurement,setting,value
CCCCCCCCCCCCC/C=C/[C@@H](O)[C@H](CO)NC(=O)CCCCCCCCCCCCCCC [C16-ceramide],channel formation in the MOM of isolated wild-type yeast mitochondria,"[1]; 10 min incubation, FIG. 13A",forms channels
CCCCCCCCCCCCC/C=C/[C@H](O)[C@@H](N)CO [L-threo sphingosine],permeabilization of the MOM to adenylate kinase after removal of excess compound with BSA,"[2]; 2.4 μg/mL for 5 min, then fatty acid depleted BSA, no ceramide added",no penneabilization of the MOM to adenylate kinase was observed
same,effect of preincubation on C16-ceramide permeabilization of the MOM and adenylate kinase release,[2],same biphasic effect
same,effect of preincubation on C16-ceramide permeabilization of the MOM and adenylate kinase release,[2]; listed as L-sphingosine,same results as D-sphingosine
"CCCCCCCCCCCCC/C=C/[C@@H](O)[C@@H](N)COP(=O)(O)O [S-1-P, sphingosine-1-phosphate]",ability to form channels,[3],destabilized membranes
CCCCOc1cc(C(=O)NCCN(CC)CC)c2ccccc2n1 [dibucaine],effect on ceramide C2-induced permeabilization,yeast mitochondria,inhibited
same,effect on ceramide C16-induced permeabilization,yeast mitochondria,somewhat potentiated
same,IC50,mammalian MOM,230 µM
CC(C)NCC(O)COc1cccc2ccccc12 (centres unmarked) [propranolol],effect on ceramide C2-induced permeabilization,yeast mitochondria,inhibited
same,effect on ceramide C16-induced permeabilization,yeast mitochondria,somewhat potentiated
same,IC50,mammalian MOM,410 µM
Bcl-2: full-length human Bcl-2 expressed in yeast cells,sensitivity to C16-ceramide channel formation of mitochondria from yeast expressing the protein,[1]; full-length human Bcl-2 expressed in yeast vs empty vector control,resistant to C16-ceramide channel formation
FL Bcl-xL: purified recombinant full-length anti-apoptotic protein Bcl-xL,level at which disassembly of preformed C16-ceramide channels was observed,"[4]; C16-ceramide before protein (reversal), biphasic, FIG. 15A",≤ 5 µg
same,level giving almost complete prevention of C16-ceramide channel formation,"[4]; protein 10 min before 20 μM C16-ceramide 10 min, FIG. 15A",1.5 µg
same,effect on conductance of a stable C16-ceramide channel,[5],dramatic decrease in the ceramide conductance to baseline
same,effect on C16-ceramide channels (prevention and reversal) in MOM of isolated yeast mitochondria,"[1]; 20 μg protein, 20 μM C16-ceramide, 10 min each, FIG. 13D-F",prevention and reversal of the C16-ceramide channels was observed
ceramide-1-phosphate [C-1-P],ability to form channels,[3],without reproducible effect
dihydroceramide,permeabilization of the MOM to cytochrome c,[4]; inserts into mitochondrial membranes to the same degree as ceramide,lack of effect
same,effect on already formed ceramide channels,[6],does not induce channel disassembly
same,"level that inhibits ceramide channel formation, relative to the ceramide level","[6]; found in liposomes and isolated mitochondria, FIG. 11 with C2-ceramide",10%
